Reference: patent US20120324604A1, “PESTICIDAL MIXTURES CONTAINING ISOXAZOLINE DERIVATIVES AND A FUNGICIDE” (priority 2010, published 2012)
Where “and” joins values, the source holds several entries; their conditions need not be identical. Identical values can stand only once.

Experiments:
Type in all cases: cell-based
[1] = test system: Pythium ultimum; test: Pythium ultimum (Damping Off) growth inhibition, microtiter plate, photometric
Procedure: Pythium ultimum (Damping Off):
Mycelial fragments of the fungus, prepared from a fresh liquid culture, were directly mixed into nutrient broth (potato dextrose broth). After placing a (DMSO) solution of the test compounds into a microtiter plate (96-well format) the nutrient broth containing the fungal spores was added.

[2] = test system: Gaeumannomyces graminis; test: Gaeumannomyces graminis growth inhibition, microtiter plate, photometric
Procedure: Mycelial fragments of the fungus from cryogenic storage were directly mixed into nutrient broth (potato dextrose broth). After placing a (DMSO) solution of the test compounds into a microliter plate (96-well format) the nutrient broth containing the fungal spores was added.

[3] = test system: Rhizoctonia solani; test: Rhizoctonia solani (Foot Rot, Damping-Off) growth inhibition, microtiter plate, photometric
Procedure: Rhizoctonia solani (Foot Rot, Damping-Off):
Mycelial fragments of the fungus from cryogenic storage were directly mixed into nutrient broth (potato dextrose broth). After placing a (DMSO) solution of the test compounds into a microtiter plate (96-well format) the nutrient broth containing the fungal spores was added.

[4] = test system: Glomerella lagenarium (syn. Colletotrichum lagenarium); test: Glomerella lagenarium (Anthracnose of Cucurbits) growth inhibition, microtiter plate, photometric; details: alone
Procedure: Glomerella lagenarium (syn. Colletotrichum lagenarium), Anthracnose of Cucurbits:
(§1) Conidia of the fungus from cryogenic storage were directly mixed into nutrient broth (potato dextrose broth). After placing a (DMSO) solution of the test compounds into a microtiter plate (96-well format) the nutrient broth containing the fungal spores was added.

[5] = test system: Septoria tritici; test: Septoria tritici (Leaf Blotch) growth inhibition, microtiter plate, photometric
Procedure: Septoria tritici (Leaf Blotch):
as §1

[6] = test system: Mycosphaerella arachidis (syn. Cercospora arachidicola); test: Mycosphaerella arachidis (Brown Leaf Spot of Groundnut) growth inhibition, microtiter plate, photometric; details: alone
Procedure: Mycosphaerella arachidis (syn. Cercospora arachidicola), Brown Leaf Spot of Groundnut (Peanut):
as §1

[7] = test system: Fusarium culmorum; test: Fusarium culmorum (Root Rot) growth inhibition, microtiter plate, photometric
Procedure: Fusarium culmorum (Root Rot):
as §1

[8] = single compound at 0.125 ppm AI
[9] = single compound at 0.0078125 ppm AI
[10] = single compound at 0.0625 ppm AI

COCC(=O)N(c1c(C)cccc1C)[C@H](C)C(=O)OC [Mefenoxam, reference compound]
100%: AVERAGE DEAD IN % ([1]; single compound at 1 ppm AI) | AVERAGE DEAD IN % ([1]; single compound at 2 ppm AI)
70% and 90%: AVERAGE DEAD IN % ([1]; single compound at 0.25 ppm AI)
50% and 70%: AVERAGE DEAD IN % [1, 8]
0%: AVERAGE DEAD IN % ([2]; single compound at 0.25 ppm AI) | AVERAGE DEAD IN % ([2]; single compound at 0.5 ppm AI) | AVERAGE DEAD IN % ([2]; single compound at 1 ppm AI)
90% and 100%: AVERAGE DEAD IN % ([1]; single compound at 0.5 ppm AI)

Cn1cc(C(=O)Nc2cccc3c2C2CCC3C2=C(Cl)Cl)c(C(F)F)n1 (stereo not drawn) [COMPOUND III]
90%: AVERAGE DEAD IN % ([3]; applied alone, 0.03125 ppm AI) | AVERAGE DEAD IN % [2, 8] | AVERAGE DEAD IN % ([5]; 0.5 ppm AI, alone) | AVERAGE DEAD IN % COMPOUND III ([5]; COMPOUND III alone, 1 ppm AI) | AVERAGE DEAD IN % ([6]; 0.0625 ppm AI) | AVERAGE DEAD IN % ([6]; 0.125 PPM AI)
50% and 70%: AVERAGE DEAD IN % COMPOUND III ([5]; COMPOUND III alone, 0.25 ppm AI)
100% and 70% and 90%: AVERAGE DEAD IN % ([6]; 0.0625 PPM AI)
100%: AVERAGE DEAD IN % ([2]; single compound at 0.25 ppm AI) | AVERAGE DEAD IN % ([2]; single compound at 0.5 ppm AI) | AVERAGE DEAD IN % ([2]; single compound at 1 ppm AI) | AVERAGE DEAD IN % ([2]; single compound at 2 ppm AI)
70%: AVERAGE DEAD IN % COMPOUND III ([5]; COMPOUND III alone, 0.5 ppm AI)
20%: AVERAGE DEAD IN % ([5]; 0.125 ppm AI, alone) | AVERAGE DEAD IN % COMPOUND III ([5]; COMPOUND III alone, 0.125 ppm AI) | AVERAGE DEAD IN % ([6]; 0.03125 ppm AI)
70% and 90%: AVERAGE DEAD IN % [2, 10]
0%: AVERAGE DEAD IN % ([2]; single compound at 0.00390625 ppm AI) | AVERAGE DEAD IN % [2, 9] | AVERAGE DEAD IN % ([4]; 0.0078125 ppm AI) | AVERAGE DEAD IN % ([4]; 0.015625 ppm AI) | AVERAGE DEAD IN % COMPOUND III ([5]; COMPOUND III alone, 0.0078125 ppm AI) | AVERAGE DEAD IN % COMPOUND III ([5]; COMPOUND III alone, 0.015625 ppm AI) | AVERAGE DEAD IN % COMPOUND III ([5]; COMPOUND III alone, 0.03125 ppm AI) | AVERAGE DEAD IN % COMPOUND III ([5]; COMPOUND III alone, 0.0625 ppm AI) | AVERAGE DEAD IN % ([6]; 0.0078125 ppm AI) | AVERAGE DEAD IN % ([6]; 0.015625 ppm AI)
70% and 50%: AVERAGE DEAD IN % ([5]; 0.25 ppm AI, alone) | AVERAGE DEAD IN % ([6]; 0.03125 PPM AI)
50%: AVERAGE DEAD IN % ([4]; 0.125 ppm AI)

CC(C)C1C2CCC1c1c(NC(=O)c3cn(C)nc3C(F)F)cccc12 (stereo not drawn) [Isopyrazam, reference compound]
90% and 70%: AVERAGE DEAD IN % Isopyrazam ([5]; Isopyrazam alone, 0.25 ppm AI)
0%: AVERAGE DEAD IN % ([3]; applied alone, 0.015625 ppm AI) | AVERAGE DEAD IN % [3, 9] | AVERAGE DEAD IN % ([3]; single compound at 0.015625 ppm AI) | AVERAGE DEAD IN % ([3]; single compound at 0.03125 ppm AI) | AVERAGE DEAD IN % ([2]; applied alone, 0.25 ppm AI) | AVERAGE DEAD IN % ([2]; applied alone, 0.5 ppm AI) | AVERAGE DEAD IN % ([2]; single compound at 0.5 ppm AI) | AVERAGE DEAD IN % ([5]; alone, 0.0078125 ppm AI) | AVERAGE DEAD IN % ([5]; alone, 0.015625 ppm AI) | AVERAGE DEAD IN % ([5]; alone, 0.03125 ppm AI) | AVERAGE DEAD IN % ([6]; 0.0078125 ppm AI) | AVERAGE DEAD IN % ([6]; 0.015625 ppm AI) | AVERAGE DEAD IN % ([6]; 0.015625 PPM AI)
70% and 90% and 100%: AVERAGE DEAD IN % ([3]; applied alone, 0.125 ppm AI)
20%: AVERAGE DEAD IN % ([5]; 0.0625 ppm AI, alone) | AVERAGE DEAD IN % Isopyrazam ([5]; Isopyrazam alone, 0.0625 ppm AI) | AVERAGE DEAD IN % ([5]; alone, 0.0625 ppm AI) | AVERAGE DEAD IN % ([6]; 0.03125 ppm AI) | AVERAGE DEAD IN % ([6]; 0.03125 PPM AI)
50% and 70%: AVERAGE DEAD IN % ([6]; 0.0625 PPM AI)
50%: AVERAGE DEAD IN % [3, 10] | AVERAGE DEAD IN % ([2]; single compound at 2 ppm AI) | AVERAGE DEAD IN % ([5]; 0.125 ppm AI, alone) | AVERAGE DEAD IN % ([5]; alone, 0.125 ppm AI)
70% and 90%: AVERAGE DEAD IN % ([6]; 0.0625 ppm AI)
90%: AVERAGE DEAD IN % ([3]; applied alone, 0.25 ppm AI) | AVERAGE DEAD IN % ([3]; single compound at 0.25 ppm AI) | AVERAGE DEAD IN % ([5]; 0.5 ppm AI, alone) | AVERAGE DEAD IN % Isopyrazam ([5]; Isopyrazam alone, 0.5 ppm AI) | AVERAGE DEAD IN % ([5]; alone, 0.5 ppm AI)
70%: AVERAGE DEAD IN % [3, 8] | AVERAGE DEAD IN % ([5]; 0.25 ppm AI, alone) | AVERAGE DEAD IN % ([5]; alone, 0.25 ppm AI)

CC1COC(Cn2cncn2)(c2ccc(Oc3ccc(Cl)cc3)cc2Cl)O1 (stereo not drawn) [Difenoconazole]
70%: AVERAGE DEAD IN % ([5]; 0.0625 ppm AI, alone) | AVERAGE DEAD IN % ([7]; single compound, 1 PPM AI, 48 hrs, 24° C.)
50%: AVERAGE DEAD IN % ([5]; 0.03125 ppm AI, alone) | AVERAGE DEAD IN % ([6]; 0.0078125 ppm AI)
50% and 70%: AVERAGE DEAD IN % ([3]; applied alone, 0.5 ppm AI) | AVERAGE DEAD IN % Difenoconazole ([5]; Difenoconazole alone, 0.0625 ppm AI)
100%: AVERAGE DEAD IN % ([3]; applied alone, 2 ppm AI)
0%: AVERAGE DEAD IN % ([2]; single compound at 0.25 ppm AI) | AVERAGE DEAD IN % ([2]; single compound at 0.5 ppm AI) | AVERAGE DEAD IN % Difenoconazole ([5]; Difenoconazole alone, 0.0078125 ppm AI) | AVERAGE DEAD IN % Difenoconazole ([5]; Difenoconazole alone, 0.015625 ppm AI) | AVERAGE DEAD IN % ([6]; 0.00390625 ppm AI) | AVERAGE DEAD IN % ([6]; 0.00390625 PPM AI)
70% and 90%: AVERAGE DEAD IN % Difenoconazole ([5]; Difenoconazole alone, 0.125 ppm AI) | AVERAGE DEAD IN % Difenoconazole ([5]; Difenoconazole alone, 0.25 ppm AI)
50% and 90%: AVERAGE DEAD IN % ([6]; 0.015625 PPM AI)
50% and 100%: AVERAGE DEAD IN % ([3]; applied alone, 1 ppm AI)
90%: AVERAGE DEAD IN % ([2]; single compound at 2 ppm AI) | AVERAGE DEAD IN % ([5]; 0.125 ppm AI, alone) | AVERAGE DEAD IN % ([5]; 0.25 ppm AI, alone) | AVERAGE DEAD IN % ([5]; 0.5 ppm AI, alone) | AVERAGE DEAD IN % ([5]; 1 ppm AI, alone) | AVERAGE DEAD IN % ([5]; 2 ppm AI, alone) | AVERAGE DEAD IN % Difenoconazole ([5]; Difenoconazole alone, 0.5 ppm AI) | AVERAGE DEAD IN % Difenoconazole ([5]; Difenoconazole alone, 1 ppm AI) | AVERAGE DEAD IN % Difenoconazole ([5]; Difenoconazole alone, 2 ppm AI) | AVERAGE DEAD IN % ([7]; alone, 2 PPM AI)
20%: AVERAGE DEAD IN % ([3]; applied alone, 0.25 ppm AI) | AVERAGE DEAD IN % ([2]; single compound at 1 ppm AI) | AVERAGE DEAD IN % ([4]; 0.5 ppm AI) | AVERAGE DEAD IN % ([4]; 1 ppm AI) | AVERAGE DEAD IN % ([7]; alone, 0.25 PPM AI) | AVERAGE DEAD IN % ([7]; alone, 0.5 PPM AI) | AVERAGE DEAD IN % ([7]; alone, 1 PPM AI) | AVERAGE DEAD IN % ([7]; single compound, 0.25 PPM AI, 48 hrs, 24° C.) | AVERAGE DEAD IN % ([7]; single compound, 0.5 PPM AI, 48 hrs, 24° C.)
